# Source: publication PMC6508677, “Identification of druggable small molecule antagonists of the Plasmodium falciparum hexose transporter PfHT and assessment of ligand access to the glucose permeation pathway via FLAG-mediated protein engineering” (PLoS ONE, 2019)
# Several values for one entry are separate records, joined by “and”; a condition that tells them apart may be missing. Equal entries are not always repeated. Where two headings read alike, the source gives them in different places.
# Legend:
# GLUT1 Y293I = test system: GLUT1 Y293I; parameters: method as in PMID 8157690; conditions: GLUT1 Y293I vs wild type; cited from earlier work
# FTPfHT = target: T1, FTPfHT (Plasmodium falciparum, UniProt Q7KWJ5); experiment: [3H]-D-glucose specific uptake into FTPfHT-containing liposomes; format: biochemical; conditions: for D-Glc - L-Glc Uptake, single experiments / D-Glc - L-Glc Uptake, Ave: liposomes; for D-Glc - L-Glc Uptake, Ave: average of Expt 1-3
# T1 sequence (Q7KWJ5 1-504): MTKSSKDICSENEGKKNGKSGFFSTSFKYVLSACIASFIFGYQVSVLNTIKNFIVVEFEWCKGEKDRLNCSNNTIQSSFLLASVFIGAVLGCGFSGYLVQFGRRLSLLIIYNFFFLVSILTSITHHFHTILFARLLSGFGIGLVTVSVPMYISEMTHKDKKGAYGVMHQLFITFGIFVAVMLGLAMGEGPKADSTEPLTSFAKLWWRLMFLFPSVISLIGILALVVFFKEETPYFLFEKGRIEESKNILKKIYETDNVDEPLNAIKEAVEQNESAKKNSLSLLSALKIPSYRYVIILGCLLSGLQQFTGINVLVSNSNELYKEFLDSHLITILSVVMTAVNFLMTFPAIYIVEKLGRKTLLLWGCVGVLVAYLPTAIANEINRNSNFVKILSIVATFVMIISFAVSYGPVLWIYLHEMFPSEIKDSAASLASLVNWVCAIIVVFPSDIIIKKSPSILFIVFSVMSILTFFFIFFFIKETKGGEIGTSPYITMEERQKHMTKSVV
# From the text: SalI and NotI restriction sites were introduced to the 5’ and 3’ ends, respectively, of FTPfHT cDNA via PCR and then this construct was placed into the multiple cloning site of the pACMV-tetO vector [25]. Stable tetracycline-inducible HEK293S GnTI cell lines expressing FTPfHT were generated using the same protocol previously described for FTGLUT4 [26]. FTPfHT protein was solubilized from FTPfHT/HEK293S GnTI cell pellets with lauryl maltose neopentyl glycol (LMNG) detergent and purified using M2 anti-FLAG affinity gel (Sigma) as described in [27]. The FLAG tag was cleaved using tobacco etch virus (TEV) protease (plasmid purchased from Addgene, Cambridge, MA) at a ratio of 1:20 TEV/PfHT overnight at 4°C in the presence of 1 mM DTT. Based on SDS-PAGE and Blue BANDit protein stain (Amresco, Solon, OH), PfHT protein after FLAG elution was ~95% pure.
# Liposomes containing PfHT were made according to Hresko et al.. Briefly, purified PfHT protein in LMNG micelles described above were mixed with Triton X-100 destabilized eggPC/POPA/POPE (70:15:15) large unilamellar vesicles (lipid to protein ratio of 100–125:1 (w/w)). By slowly removing the detergents with Amberlite XAD-2 beads (Supelco Analytical, Bellefonte, PA), PfHT protein spontaneously inserts into the liposomes. After removal of the beads, liposomes were collected by ultracentrifugation, resuspended in buffer, and flash-frozen with liquid nitrogen. Frozen liposomes containing purified PfHT protein were thawed at room temperature followed by extrusion through a 200-nm polycarbonate filter to create liposomes of uniform size. Uptake was started by adding [^3H]-D-glucose (1 μCi/ml, 200 μM cold D-glucose) to PfHT proteoliposomes at room temperature. Transport was stopped at different times with 5 ml of ice-cold quench buffer (50 mM potassium phosphate, 130 mM KCl, pH 7.4) and then filtered by vacuum on a 0.2-μm mixed cellulose ester filter (Advantec, Durham, NC). Filters were subsequently washed with an additional 10 ml of quench buffer. Scintillation fluid (Filter Count, PerkinElmer, Waltham, MA) was added to the filters and the radioactivity counted. [^3H]-L-glucose (1 μCi/ml, 200 μM cold L-glucose) was used to determine nonspecific transport. Specific uptake was calculated by subtracting nonspecific [^3H]-L-glucose from [^3H]-D-glucose uptake. Uptake was normalized to the amount of transporter per reaction, determined by analyzing aliquots of transporter-containing liposomes along with a BSA standard curve on an SDS-polyacrylamide gel stained with Blue Bandit protein stain and quantified using an Odyssey infrared imaging system (LI-COR Biosciences, Lincoln, NB). Data were fitted by least squares nonlinear regression analysis using GraphPad Prism 6.0.
compound,measurement,setting,value
"C=C1[C@@H](C)[C@H]2[C@H](Cc3ccccc3)NC(=O)[C@]23OC(=O)/C=C/[C@H](O)CCC[C@@H](C)C/C=C/[C@H]3[C@@H]1O [CB, cytochalasin B]",increase of Ki by Y293I mutation,GLUT1 Y293I,> 100 fold
"Cc1ccc(S(=O)(=O)CCNC(=O)c2c(-c3c(Cl)cccc3Cl)noc2C)cc1 [WU-1, 3-(2,6-dichlorophenyl)-5-methyl-N-[2-(4-methylbenzenesulfonyl)ethyl]-1,2-oxazole-4-carboxamide]",IC50,"FTPfHT; D-Glc - L-Glc uptake in reconstituted liposomes, Expt 1, Expt 2, Expt 3, read-out: IC50, single experiments",12.4 µM and 18.8 µM and 8.31 µM
same,IC50,"FTPfHT; S3 Fig, read-out: IC50 for specific D-glucose uptake into FTPfHT liposomes",13.2 ± 3.1 µM
same,"D-Glc - L-Glc Uptake, single experiments","FTPfHT; WU-1 0.001 µM, Expt 1, Expt 2, Expt 3",36.56 pmol/µg PfHT and 54.37 pmol/µg PfHT and 37.47 pmol/µg PfHT
same,"D-Glc - L-Glc Uptake, Ave",FTPfHT; WU-1 0.001 µM,42.8 pmol/µg PfHT
same,"D-Glc - L-Glc Uptake, single experiments","FTPfHT; WU-1 0.625 µM, Expt 1, Expt 2, Expt 3",44.52 pmol/µg PfHT and 43.4 pmol/µg PfHT and 46.2 pmol/µg PfHT
same,"D-Glc - L-Glc Uptake, Ave",FTPfHT; WU-1 0.625 µM,44.7 pmol/µg PfHT
same,"D-Glc - L-Glc Uptake, single experiments","FTPfHT; WU-1 1.25 µM, Expt 1, Expt 2, Expt 3",39.01 pmol/µg PfHT and 40.61 pmol/µg PfHT and 38.03 pmol/µg PfHT
same,"D-Glc - L-Glc Uptake, Ave",FTPfHT; WU-1 1.25 µM,39.22 pmol/µg PfHT
same,"D-Glc - L-Glc Uptake, single experiments","FTPfHT; WU-1 2.5 µM, Expt 1, Expt 2, Expt 3",43.49 pmol/µg PfHT and 43.42 pmol/µg PfHT and 42.09 pmol/µg PfHT
same,"D-Glc - L-Glc Uptake, Ave",FTPfHT; WU-1 2.5 µM,43 pmol/µg PfHT
same,"D-Glc - L-Glc Uptake, single experiments","FTPfHT; WU-1 5 µM, Expt 1, Expt 2, Expt 3",32.42 pmol/µg PfHT and 25.14 pmol/µg PfHT and 27.92 pmol/µg PfHT
same,"D-Glc - L-Glc Uptake, Ave",FTPfHT; WU-1 5 µM,28.49 pmol/µg PfHT
same,"D-Glc - L-Glc Uptake, single experiments","FTPfHT; WU-1 10 µM, Expt 1, Expt 2, Expt 3",23.96 pmol/µg PfHT and 25.01 pmol/µg PfHT and 20.67 pmol/µg PfHT
same,"D-Glc - L-Glc Uptake, Ave",FTPfHT; WU-1 10 µM,23.21 pmol/µg PfHT
same,"D-Glc - L-Glc Uptake, Ave",FTPfHT; WU-1 20 µM,17.17 pmol/µg PfHT
same,"D-Glc - L-Glc Uptake, single experiments","FTPfHT; WU-1 40 µM, Expt 1, Expt 2, Expt 3",10.91 pmol/µg PfHT and 13.9 pmol/µg PfHT and 10.43 pmol/µg PfHT
same,"D-Glc - L-Glc Uptake, Ave",FTPfHT; WU-1 40 µM,11.75 pmol/µg PfHT
same,"D-Glc - L-Glc Uptake, single experiments","FTPfHT; WU-1 80 µM, Expt 1, Expt 2, Expt 3",3.31 pmol/µg PfHT and 3.52 pmol/µg PfHT and 3.4 pmol/µg PfHT
same,"D-Glc - L-Glc Uptake, Ave",FTPfHT; WU-1 80 µM,3.41 pmol/µg PfHT
same,"D-Glc - L-Glc Uptake, single experiments","FTPfHT; WU-1 160 µM, Expt 1, Expt 2, Expt 3",4.44 pmol/µg PfHT and 4.32 pmol/µg PfHT and 4.15 pmol/µg PfHT
same,"D-Glc - L-Glc Uptake, Ave",FTPfHT; WU-1 160 µM,4.3 pmol/µg PfHT
